Measurements from patent US20070225364A1, “Use of bismuth subgallate and borneol in treating melanoma” (HEDONIST BIOCHEMICAL TECHNOLOGIES CO., LTD., priority 2006, published 2007).
Several values for one entry are separate records, joined by “and”; a condition that tells them apart may be missing. Equal values may be shown once.

Columns and labels:
[1] = system: A375 human melanoma cells; test: Cytotoxicity assay (MTT relative viability), A375 cells; assay type: cell-based; details: BSG and BO applied together, 72 hours, FIGS. 1A and 1B
Experimental: (§1) A375 human melanoma cells (obtained from Food Industry Research and Development Institute, Hsinchu, Taiwan, R.O.C. under accession number CCRC 60039) and normal human keratinocyte (HaCaT) cells (obtained from Dr. Lin P., Institute of Medical & Molecular Toxicology, Chung Shan Medical University, Taichung, Taiwan) were used for the test.
(§2) A375 and HaCaT cells were incubated in 96-well plates (Corning Incorporated COSTAR® 3599) at a density of 3×10^3 cells/well and 5×10^3 cells/well, respectively. After 24 hours, the cells were treated with various concentrations of bismuth subgallate (BSG) and borneol (BO) for 72 hours. The cytotoxicity effect of BSG and BO was estimated by the relative viability (%) of the cells, which was determined by measuring the reduction of tetrazolium salt MTT using a Microplate reader (Thermo Lab systems Multishkan Spectrum) at a test wavelength of 550 nm and a reference wavelength of 690 nm. The relative viability is calculated by the following equation: Relative Viability(%)=ODtestODcontrol×100 The results are represented by the means plus standard errors (Mean±SE) of five repetitions.

[2] = system: normal human keratinocyte (HaCaT) cells; test: Cytotoxicity assay (MTT relative viability), HaCaT cells; assay type: cell-based; details: BSG and BO applied together, 72 hours, FIG. 2
Experimental: as §1, §2

| Compound | lowest concentration at which reduction of relative viability of A375 cells is observed [1] [µg/mL] | concentrations at which cytotoxicity effect on HaCaT cells is observed (only at high concentrations) [2] |
| --- | --- | --- |
| bismuth subgallate [BSG] | 17.5 | 140 µg/mL and 280 µg/mL |
| CC1(C)C2CCC1(C)C(O)C2 (stereo not drawn) [BO, borneol] | 2.5 | – |
